Measurements as given in US10555923B2, “Method for treating paroxysmal nocturnal hemoglobinuria” (ENZYCHEM LIFESCIENCES CORPORATION, priority 2015, dated 2020).

How the values were obtained:
[1] = tested on: C3; experiment: In vitro inhibition of C3 expression in HMC-1 cells (IL-4/TNF-α induced, RT-PCR); assay type: cell-based, human; settings: IL-4 (5 ng) and TNF-α (10 ng), PLAG 0.1 and 1 μg/mL
Experimental: A blood cell line, HMC-1 (human mast cell, American Type Culture Collection, ATCC, Rockville, Md.) is incubated and maintained at 37° C. under 5% CO2 humid conditions. The medium is IMDM (Life Technologies, Karlsruhe, Germany) containing 10% Fetal Calf Serum (FCS, HyClone, Logan, Utah), 2 mM […], 100 μg/ml penicillin, 100 μg/ml streptomycin (Life Technologies). The cultured HMC-1 cells (1×10^6 cell/ml) are pretreated with 0.1 and 1 μg/mL concentrations of PLAG, followed by treatment with IL-4 (5 ng) and/or TNF-α (10 ng) to induce cellular activities.
The expressed C3 and its mRNA level changes are observed by using RT-PCR (Reverse Transcriptase Polymerase Chain Reaction). The RT-PCR is carried out as follows: the total RNA is separated by the standard protocol and cDNA is synthesized using AccuScript High Fidelity 1st Strand cDNA Synthesis Kit (Stratagene). Two-step RT-PCR reaction is conducted using Oligo-dT primer and reverse transcriptase, pair of primers and Taq polymerase (Takara, Shiga, Japan). […] The product of PCR is separated using 1.5% agarose gel, dyed with ethidium bromide (EtBr), and visualized with Gel Doc 2000 UV trans-illuminator (Bio-Rad Laboratories, Hercules, Calif., USA), and the experimental data is analyzed using Quantity One software (Bio-Rad Laboratories).

[2] = tested on: C3; experiment: C3 mRNA expression in HepG2 cell line (RT-PCR); assay type: cell-based, human
Experimental: A liver cell line, HepG2 (American Type Culture Collection, ATCC, Rockville, Md.), is incubated and maintained at 37° C., 5% CO2 humid atmosphere in DMEM medium. When HepG2 cells, which are known to produce complement in culture, are treated with PLAG, the activity of complement is reduced effectively, as confirmed by RT-PCR of mRNA. In the RT-PCR, 5×10^5 HepG2 cells/ml are distributed into 12 well plates and induced C3 for 12 hours with 10% FCS. Then PLAG is added and further cultured for 2 hours. Cells are harvested and mRNA is isolated and RT-PCR is carried out with specific primers for C3; GAPDH is used as an internal control.

[3] = tested on: STAT1; experiment: Reporter assay for STAT1 transcriptional activity in HepG2 cells; assay type: cell-based, human; settings: 10 ng IFN-γ, PLAG 0.01-10 μg/ml, 12 hour incubation
Experimental: (§1) By using STAT6 inhibitor (S6I), it is confirmed that the reduction of complement 3 in HepG2 cells (human hepatocyte cell line) is regulated by STAT6. […] It is also confirmed that PLAG has selective efficacy on STAT6 over STAT1. FIG. 1 presents graphs showing STAT1 and STAT6 transcriptional activity in the PLAG treated HepG2 cells. NC refers to the unstimulated control cell. For the STAT1 assay, gene transfected HepG2 (human hepatocyte cell line) is treated with 10 ng of IFN-γ and serially diluted PLAG is added (0.01 μg/ml, 0.1 μg/ml, 1 μg/ml, and 10 μg/ml as shown) to see its effect on gene expression in the stimulated cell. For the STAT6 assay, gene transfected HepG2 cells are treated with 10 ng of IL-4 and again serially diluted PLAG is added (0.01 μg/ml, 0.1 μg/ml, 1 μg/ml, and 10 μg/ml as shown) to see its effect on gene expression in the stimulated cell. The assay is carried out following a 12 hour incubation of treated cells.

[4] = tested on: STAT6; experiment: Reporter (luciferase) assay for STAT6 transcriptional activity in HepG2 cells; assay type: cell-based, human; settings: 10 ng IL-4, PLAG 0.01-10 μg/ml, 12 hour incubation
Experimental: as §1

[5] = Colony forming units (CFUs) in spleen assay in heavily irradiated mice; assay type: in vivo; settings: 50 mg/kg/d i.p. or p.o.
Experimental: In order to determine the in vivo effect of PLAG on the recovery of hematopoiesis, a CFUs assay is performed in heavily irradiated mice.

[6] = biological target: T1, STAT6 (Homo sapiens, UniProt P42226); experiment: Dephosphorylation of STAT6 in IL-4 stimulated cell lysates (Western blot); assay type: cell-based; settings: U937, Jurkat and A549 cells; PLAG 0.01 to 10 μg/ml; 10 ng/ml IL-4; 15 min after stimulation
T1 construct: using anti-phosphorylated STAT6 in U937, A549, and Jurkat cell lysates treated with PLAG; endogenous in cells; host or cells: U937, A549, Jurkat
T1 sequence (P42226 1-847): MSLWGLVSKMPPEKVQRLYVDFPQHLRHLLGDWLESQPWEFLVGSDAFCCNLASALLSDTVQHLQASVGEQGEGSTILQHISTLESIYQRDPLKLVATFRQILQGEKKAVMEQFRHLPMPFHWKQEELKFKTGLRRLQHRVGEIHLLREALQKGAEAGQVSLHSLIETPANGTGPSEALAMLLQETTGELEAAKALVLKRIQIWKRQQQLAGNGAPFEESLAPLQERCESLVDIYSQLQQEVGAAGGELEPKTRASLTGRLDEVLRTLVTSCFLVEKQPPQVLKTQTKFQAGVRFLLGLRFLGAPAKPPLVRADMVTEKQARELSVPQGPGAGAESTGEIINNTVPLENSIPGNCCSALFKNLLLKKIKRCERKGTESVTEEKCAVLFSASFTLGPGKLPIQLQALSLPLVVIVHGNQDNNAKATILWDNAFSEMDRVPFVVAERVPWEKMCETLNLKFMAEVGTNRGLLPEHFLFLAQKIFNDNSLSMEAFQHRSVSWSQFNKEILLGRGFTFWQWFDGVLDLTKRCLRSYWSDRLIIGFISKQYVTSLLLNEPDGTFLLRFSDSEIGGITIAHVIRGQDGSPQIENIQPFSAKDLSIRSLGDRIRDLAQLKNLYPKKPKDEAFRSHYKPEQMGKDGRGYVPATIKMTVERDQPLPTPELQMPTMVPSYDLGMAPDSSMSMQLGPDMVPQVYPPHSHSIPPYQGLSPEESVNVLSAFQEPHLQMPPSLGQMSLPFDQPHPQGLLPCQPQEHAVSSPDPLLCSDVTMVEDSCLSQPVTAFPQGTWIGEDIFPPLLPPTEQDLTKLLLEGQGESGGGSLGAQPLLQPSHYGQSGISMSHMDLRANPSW
Experimental: Dephosphorylation of STAT6 is examined using anti-phosphorylated STAT6 in U937, A549, and Jurkat cell lysates treated with PLAG at a concentration from 0.01 to 10 μg/ml. Phosphorylation of STAT6 is induced by treatment with 10 ng/ml of IL-4. Dephosphorylation of STAT1 is examined in the U937 cell lysate treated with PLAG (0.01 to 10 μg/ml). Phosphorylation of STAT1 is induced by 10 ng of IFN-γ treatment. Dephosphorylation of STAT1 and STAT6 is examined at 15 min after stimulation with IFN-γ and IL-4 respectively, in the PLAG pretreated cells. […] The transcriptional activity of STAT6 is decreased by the dephosphorylation of STAT6. […] No effect of PLAG on STAT1 phosphorylation is observed.

[7] = tested on: C3; experiment: C3 in culture supernatant of HepG2 cells (ELISA); assay type: cell-based, human; settings: PLAG 1 to 100 μg/ml or S6I 10 and 100 μg/ml, IL-4 and TNF-α 1 hr, incubated 18 hr
Experimental: (§2) The incubated HepG2 cell lines are treated with PLAG (1˜100 μg/ml), followed by IL-4 and TNF-α, reacted for 1 hour, incubated for 18 hours at 37° C. and the supernatant is isolated. Quantitation of the amount of C3 in the cellular culture medium (supernatant) from HepG2 cells is performed by ELISA using a commercially available monoclonal antibody (mAb, R&D Systems) and the manufacture's protocol; the results are presented in FIGS. 3A-3C. C3 is expressed spontaneously under in vitro culture conditions using 10% FCS added to HepG2 cells and incubated for 12 hr. The cells are treated with PLAG from 1 to 100 μg/ml (FIG. 3A, FIG. 3B) or 10 and 100 μg/ml of S6I (FIG. 3C), reacted with IL-4 and TNF-α for 1 hr and then incubated for 18 hr at 37° C. Cellular viability is confirmed using the WST-1 assay (FIG. 3A).

[8] = tested on: complement 3; experiment: Complement 3 activation by chemotherapeutic agents in mouse model; assay type: in vivo; settings: mice; PLAG 50 mg/kg daily 3 weeks with Gemcitabine, Cyclosphosphamide or Tamoxifen
Experimental: The effect of PLAG for treatment of chemotherapy-induced thrombocytopenia (CIT) is evaluated in an animal model. Anti-cancer agents (Gemcitabine 50 mg/kg, Cyclosphosphamide 100 mg/kg, or Tamoxifen 50 mg/kg) are dosed daily for 3 weeks; PLAG is also administered at 50 mg/kg daily for 3 weeks.
It is believed that the leukopenia and thrombocytopenia of these agents and other chemotherapeutic agents may be due at least in part to a specific complement-mediated toxicity. This is seen in FIG. 5.

[9] = tested on: HepG2 cells; experiment: WST-1 cell viability assay in HepG2 cells; assay type: cell-based; settings: PLAG 1 to 100 μg/ml
Experimental: as §2

[10] = tested on: C3; experiment: C3 inhibition in HMC-1 cells (ELISA); assay type: cell-based, human; settings: PLAG 1, 10 and 100 μg/mL for 2 hours, activated 72 hours with 10% FBS
Experimental: In a separate experiment, human mast cells (HMC-1, 1×10^5 cell/ml) are treated with PLAG of various concentrations (1, 10 and 100 μg/mL) for 2 hours. The cells are activated for 72 hours with 10% FBS (Fetal bovine serum) containing IMDM. The decrease of C3 is confirmed by ELISA analysis of the expressed protein.

[11] = tested on: hematopoietic stem cells and megakaryocytes; settings: reported in WO 99/26640; cited from earlier work

Compound: NC(=O)c1cnc(NCCc2ccc(O)c(Cl)c2)nc1NCc1ccccc1 [S6I, reference compound]
- expression of C3 [1]: suppresses expression of C3
- inhibition of C3 expression (mRNA, RT-PCR) ([2]; S6I 10 and 100 μg/ml, compared with PLAG 1 and 10 μg/ml): comparable

Compound: CCCCC/C=C\C/C=C\CCCCCCCC(=O)OC(COC(C)=O)COC(=O)CCCCCCCCCCCCCCC (racemic) [PLAG, 1-palmitoyl-2-linoleoyl-3-acetylglycerol]
- STAT1 transcriptional activity (expression) [3]: no effect
- STAT6 transcriptional activity (expression) [4]: significant, dose-dependent effect
- number of splenic nodules, primitive progenitor cells and megakaryocytes [5]: marked increase
- IL-4 treatment induced STAT6 phosphorylation [6]: inhibited with increasing PLAG concentrations
- expression of C3 (amount in supernatant, ELISA) [7]: decreased dose-dependently
- blockage of chemotherapy-induced complement 3 activation [8]: largely blocked
- expression of C3 [1]: suppressed by PLAG on a concentration dependent basis
- cellular propagation and death (WST-1 viability) [9]: does not affect the cellular propagation and death
- inhibition of C3 expression (mRNA, RT-PCR) ([2]; PLAG 1 μg/ml, 2 hours): somewhat
- inhibition of C3 expression (mRNA, RT-PCR) ([2]; PLAG 10 μg/ml, 2 hours): entirely
- decrease of C3 (ELISA of expressed protein) [10]: proportional to the concentration of PLAG
- growth-stimulating activities of hematopoietic stem cells and megakaryocytes [11]: have growth-stimulating activities
